Data reported in US6355799B1, “Substituted benzene compounds, process for their preparation, and herbicidal and defoliant compositions containing them” (ISK Americas Incorporated, priority 1997, dated 2002).

Assays:
Type in all cases: in vivo
[1] = test system: field corn (Zea mays L., var. Dekalb 535, CORN); test: Pre-emerge test, crop safety; settings: pre-emerge, rated 14 days after application, 0 = no damage, 100 = complete death
In short: (§1)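 Visual ratings on a 0-100 scale (0 no damage, 100 all plants dead) were taken at 14 days after treatment. Rates of 15-1000 g ai/ha in acetone, 187 l/ha, were sprayed onto soil one day after planting (pre-emerge) or onto 2-3 leaf plants with 0.25% v/v surfactant (post-emerge).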

[2] = test system: upland rice (Oryza sp., var. Tebonnet, RICE); test: Pre-emerge test, crop safety; settings: pre-emerge, rated 14 days after application, 0 = no damage, 100 = complete death
In short: as §1

[3] = test system: common ragweed (Ambrosia artemisizfolia L., AMBEL); test: Post-emerge test, greenhouse herbicide activity screening; settings: 250 g ai/ha; phytotoxicity rating 0-100 (0 no damage, 100 complete death), 14 days after application
In short: (§2)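 Fourteen days after spraying, crop and weed injury was graded visually from 0, no effect, to 100, every plant dead. Test substances were dissolved in acetone and applied at 15–1000 g ai/ha with a flat-fan nozzle. Application was either pre-emergence, one day after sowing, or post-emergence at the 2–3 leaf stage.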

[4] = test system: large crabgrass (Digitaria sanguinalis, DIGSA); test: as above; settings: phytotoxicity rating 0-100 (0 no damage, 100 complete death), 14 days after application
In short: as §2

[5] = test system: sicklepod (Cassia obtusifolia, CASOB); test: as above; settings: phytotoxicity rating 0-100 (0 no damage, 100 complete death), 14 days after application
In short: as §2

[6] = test system: redroot pigweed (Amaranthus retroflexus, AMARE); test: as above; settings: phytotoxicity rating 0-100 (0 no damage, 100 complete death), 14 days after application
In short: as §2

[7] = test system: velvetleaf (Abutilon theophrasti, ABUTH); test: as above; settings: phytotoxicity rating 0-100 (0 no damage, 100 complete death), 14 days after application
In short: as §2

[8] = test system: green foxtail (Setaria viridis, SETVI); test: as above; settings: phytotoxicity rating 0-100 (0 no damage, 100 complete death), 14 days after application
In short: as §2

[9] = test system: ivyleaf morningglory (Ipomoea hederacea, IPOHE); test: as above; settings: phytotoxicity rating 0-100 (0 no damage, 100 complete death), 14 days after application
In short: as §2

[10] = test system: lambsquarters (Chenopodium album, CHEAL); test: as above; settings: phytotoxicity rating 0-100 (0 no damage, 100 complete death), 14 days after application
In short: as §2

[11] = test system: johnsongrass (Sorghum halepense, SORHA); test: as above; settings: phytotoxicity rating 0-100 (0 no damage, 100 complete death), 14 days after application
In short: as §2

[12] = test system: barnyardgrass (Echinochloa crus-galli, ECHCG); test: as above; settings: phytotoxicity rating 0-100 (0 no damage, 100 complete death), 14 days after application
In short: as §2

[13] = test system: redroot pigweed (Amaranthus retroflexus, AMARE); test: Pre-emerge test, greenhouse herbicide activity screening; settings: pre-emerge, rated 14 days after application, 0 = no damage, 100 = complete death
In short: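 Herbicidal damage is scored 0 (none) to 100 (complete plant death) two weeks after a simulated field spray. Rates span 15–1000 g ai/ha, delivered in acetone at 187 l/ha. For post-emergence treatments, plants have 2–3 leaves and the spray carries 0.25% v/v non-ionic surfactant.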

[14] = test system: field corn (Zea mays L., var. Dekalb 535, CORN); test: Post-emerge test, crop safety; settings: phytotoxicity rating 0-100 (0 no damage, 100 complete death), 14 days after application
In short: (§3)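 Compounds in acetone were track-sprayed at 15-1000 g ai/ha (187 l/ha) on sandy loam pots: pre-emerge one day after seeding, post-emerge at 2-3 leaf stage with 0.25% v/v non-ionic surfactant. Phytotoxicity was rated 14 days later on a 0 (no damage) to 100 (complete death) scale.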

[15] = test system: upland rice (Oryza sp., var. Tebonnet, RICE); test: Post-emerge test, crop safety; settings: phytotoxicity rating 0-100 (0 no damage, 100 complete death), 14 days after application
In short: as §3

[16] = test system: large crabgrass (Digitaria sanguinalis, DIGSA); test: Pre-emerge test, greenhouse herbicide activity screening; settings: pre-emerge, rated 14 days after application, 0 = no damage, 100 = complete death
In short: as §3

[17] = test system: sicklepod (Cassia obtusifolia, CASOB); test: as above; settings: pre-emerge, rated 14 days after application, 0 = no damage, 100 = complete death
In short: as §3

[18] = test system: velvetleaf (Abutilon theophrasti, ABUTH); test: as above; settings: pre-emerge, rated 14 days after application, 0 = no damage, 100 = complete death
In short: as §3

[19] = test system: green foxtail (Setaria viridis, SETVI); test: as above; settings: pre-emerge, rated 14 days after application, 0 = no damage, 100 = complete death
In short: as §3

[20] = test system: ivyleaf morningglory (Ipomoea hederacea, IPOHE); test: as above; settings: pre-emerge, rated 14 days after application, 0 = no damage, 100 = complete death
In short: as §3

[21] = test system: lambsquarters (Chenopodium album, CHEAL); test: as above; settings: pre-emerge, rated 14 days after application, 0 = no damage, 100 = complete death
In short: as §3

[22] = test system: johnsongrass (Sorghum halepense, SORHA); test: as above; settings: pre-emerge, rated 14 days after application, 0 = no damage, 100 = complete death
In short: as §3

[23] = test system: barnyardgrass (Echinochloa crus-galli, ECHCG); test: as above; settings: pre-emerge, rated 14 days after application, 0 = no damage, 100 = complete death
In short: as §3

COc1c(Cl)cc(F)c(-n2c(=O)cc(C(F)(F)F)n(C)c2=O)c1NC(=O)C1CCCCC1 [2-19]
95: Pre-emerge Herbicidal Activity CHEAL (phytotoxicity rating, scale 0-100) ([21]; 63 g ai/ha)
60: Pre-emerge crop damage RICE (phytotoxicity rating, scale 0-100) ([2]; 250 g ai/ha) | Pre-emerge Herbicidal Activity SORHA (phytotoxicity rating, scale 0-100) ([22]; 250 g ai/ha)
100: Post-emerge Herbicidal Activity ABUTH ([7]; 250 g ai/ha) | Post-emerge Herbicidal Activity IPOHE ([9]; 250 g ai/ha) | Pre-emerge Herbicidal Activity AMARE (phytotoxicity rating, scale 0-100) ([13]; 250 g ai/ha) | Pre-emerge Herbicidal Activity DIGSA (phytotoxicity rating, scale 0-100) ([16]; 250 g ai/ha) | Pre-emerge Herbicidal Activity ABUTH (phytotoxicity rating, scale 0-100) ([18]; 250 g ai/ha) | Pre-emerge Herbicidal Activity SETVI (phytotoxicity rating, scale 0-100) ([19]; 250 g ai/ha) | Pre-emerge Herbicidal Activity IPOHE (phytotoxicity rating, scale 0-100) ([20]; 250 g ai/ha) | Pre-emerge Herbicidal Activity CHEAL (phytotoxicity rating, scale 0-100) ([21]; 250 g ai/ha)
40: Pre-emerge crop damage CORN (phytotoxicity rating, scale 0-100) ([1]; 250 g ai/ha) | Post-emerge Herbicidal Activity AMARE ([6]; 63 g ai/ha) | Pre-emerge Herbicidal Activity DIGSA (phytotoxicity rating, scale 0-100) ([16]; 63 g ai/ha)
80: Pre-emerge Herbicidal Activity AMARE (phytotoxicity rating, scale 0-100) ([13]; 63 g ai/ha)
0: Post-emerge Herbicidal Activity DIGSA ([4]; 63 g ai/ha) | Post-emerge Herbicidal Activity DIGSA ([4]; 250 g ai/ha) | Post-emerge Herbicidal Activity CASOB ([5]; 63 g ai/ha) | Post-emerge Herbicidal Activity SETVI ([8]; 63 g ai/ha) | Post-emerge Herbicidal Activity SORHA ([11]; 63 g ai/ha) | Post-emerge Herbicidal Activity SORHA ([11]; 250 g ai/ha) | Post-emerge Herbicidal Activity ECHCG ([12]; 63 g ai/ha) | Post-emerge Herbicidal Activity ECHCG ([12]; 250 g ai/ha) | Post-emerge Herbicidal Activity CORN (crop damage) ([14]; 63 g ai/ha) | Post-emerge Herbicidal Activity CORN (crop damage) ([14]; 250 g ai/ha) | Post-emerge Herbicidal Activity RICE (crop damage) ([15]; 63 g ai/ha) | Pre-emerge Herbicidal Activity CASOB (phytotoxicity rating, scale 0-100) ([17]; 63 g ai/ha) | Pre-emerge Herbicidal Activity SORHA (phytotoxicity rating, scale 0-100) ([22]; 63 g ai/ha) | Pre-emerge Herbicidal Activity ECHCG (phytotoxicity rating, scale 0-100) ([23]; 63 g ai/ha)
30: Post-emerge Herbicidal Activity AMBEL [3] | Post-emerge Herbicidal Activity SETVI ([8]; 250 g ai/ha)
75: Post-emerge Herbicidal Activity AMARE ([6]; 250 g ai/ha)
20: Post-emerge Herbicidal Activity RICE (crop damage) ([15]; 250 g ai/ha) | Pre-emerge Herbicidal Activity SETVI (phytotoxicity rating, scale 0-100) ([19]; 63 g ai/ha)
10: Pre-emerge crop damage RICE (phytotoxicity rating, scale 0-100) ([2]; 63 g ai/ha) | Post-emerge Herbicidal Activity CASOB ([5]; 250 g ai/ha) | Pre-emerge Herbicidal Activity CASOB (phytotoxicity rating, scale 0-100) ([17]; 250 g ai/ha) | Pre-emerge Herbicidal Activity IPOHE (phytotoxicity rating, scale 0-100) ([20]; 63 g ai/ha)
50: Post-emerge Herbicidal Activity CHEAL ([10]; 63 g ai/ha) | Post-emerge Herbicidal Activity CHEAL ([10]; 250 g ai/ha) | Pre-emerge Herbicidal Activity ECHCG (phytotoxicity rating, scale 0-100) ([23]; 250 g ai/ha)
70: Post-emerge Herbicidal Activity IPOHE ([9]; 63 g ai/ha)
90: Post-emerge Herbicidal Activity ABUTH ([7]; 63 g ai/ha) | Pre-emerge Herbicidal Activity ABUTH (phytotoxicity rating, scale 0-100) ([18]; 63 g ai/ha)
5: Pre-emerge crop damage CORN (phytotoxicity rating, scale 0-100) ([1]; 63 g ai/ha)
